According to ChEMBL document CHEMBL1129789, “Dopamine D3 and D4 receptor antagonists: synthesis and structure--activity relationships of (S)-(+)-N-(1-Benzyl-3-pyrrolidinyl)-5-chloro-4- [(cyclopropylcarbonyl) amino]-2-methoxybenzamide (YM-43611) and related compounds” (J Med Chem, 1996):

Target: T1, Muscarinic acetylcholine receptor M2 (Rattus norvegicus, UniProt P10980)
T1 sequence (P10980 whole entry): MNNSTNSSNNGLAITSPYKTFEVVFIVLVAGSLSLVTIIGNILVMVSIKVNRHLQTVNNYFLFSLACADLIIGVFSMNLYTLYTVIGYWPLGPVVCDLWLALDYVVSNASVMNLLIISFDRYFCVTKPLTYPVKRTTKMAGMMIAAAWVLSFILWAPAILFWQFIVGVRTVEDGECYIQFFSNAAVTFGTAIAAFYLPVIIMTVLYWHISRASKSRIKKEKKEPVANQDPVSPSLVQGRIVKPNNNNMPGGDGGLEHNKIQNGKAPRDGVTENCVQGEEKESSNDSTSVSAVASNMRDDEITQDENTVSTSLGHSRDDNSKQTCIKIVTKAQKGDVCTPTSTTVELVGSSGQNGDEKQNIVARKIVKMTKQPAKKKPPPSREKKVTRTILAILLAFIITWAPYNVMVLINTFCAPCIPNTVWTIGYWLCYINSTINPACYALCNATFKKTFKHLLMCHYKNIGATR
Assay: Compound was tested for the Binding affinity against rat heart Muscarinic acetylcholine receptor M2 by Radio ligand [3H]quinuclidinyl binding assay

Ki: 7.3 µM
Compound: COc1cc(NC(=O)C2CC2)c(Cl)cc1C(=O)N[C@H]1CCN(Cc2ccccc2)C1
